Experiments:
[1] = system: Trichoderma asperellum strain B35; assay: Germination rate after air-drying with protectants, strain B35; type: cell-based; conditions: after air-drying at room temperature overnight; material:spore 1:1, lecithin 1:10
Method: (§1) The spores of Trichoderma strains T1 and B35 were prepared by Solid State Fermentation (SSF) and harvested, then centrifuged to form a spore paste. T1 is used here as an abbreviation for Trichoderma atroviride strain T1 with a culture collection No. I123-7 (French collection), while B35 is used here as an abbreviation for Trichoderma asperellum strain B35, deposited in the German Culture collection under the No. DSM33245.
(§2) For the air-drying experiments (explained further below), in order to get a protectant-to-spore mass ratio of 1:1 (except for lecithin), 12 g of the spore paste was mixed with 3 g of the protectant in order to get a total of 15 g. The spore concentration in the paste is about 25%, which makes then 3 g of spore in contact with 3 g of protectant. The mixture of protectants and paste were mixed for 5 min and 3400 rpm using an Ultra-Turrax equipment (IKA T25). In case of the test for lecithin, 1.5 g of a 20% lecithin solution was added to 13.5 g of spore paste, then mixed according to the afore-mentioned procedure (5 min, 3400 rpm). After mixing, the mixture was poured into a tray and dried at room temperature overnight.
(§3) Germination rates were measured according to the following protocol: The sample with the spores is dispersed in sterile tap water to get a homogenous spore solution. Depending on the initial spore concentration, the sample may need to be diluted up to 1E+07 spores/mL. This dilution then is spread on agar plates (often, 100 μl of dilution spread on a Potato Dextrose Agar plate) with a sterile Drigalski spatula. Depending on the strain type, the plates are incubated at a certain temperature (for example 20° C. for Trichoderma used here) for some time (here 19-24 hours is used) to allow time for germination and forming hyphae. Subsequently, the spores on the plates are analyzed under the microscope in 8 to 10 randomly chosen areas. At least 200 germinated and non-germinated spores are counted. The viability (%) is calculated by 100 times the number of germinated spores to the total spores counted.
(§4) A test was conducted to compare lecithin against other known microbial stabilizers and protectant materials. These materials include different sugars, proteins, skim milk powder, and others. Initially, an air-drying technique in room temperature was used.
(§5) After the spores were air dried with different protectants at room temperature overnight, the germination rate and total dry matter content (DMC, which is a way of expressing total moisture content) of the samples were analyzed.

[2] = Dry matter content / residual moisture by heating balance; type: physicochemical; conditions: dry matter content after air-drying; for DMC (%) B35: strain B35; for DMC (%) T1: strain T1
Method: For all experiments conducted, dry matter content (as related to total moisture content) was measured by a heating balance apparatus (Sartorius MA 160).
as §5

[3] = system: Trichoderma atroviride strain T1; assay: Germination rate after air-drying with protectants, strain T1; type: cell-based; conditions: after air-drying at room temperature overnight; material:spore 1:1, lecithin 1:10
Method: as §1, §2, §3, §4, §5

| Molecule | Germination rate (%) B35 [1] | DMC (%) B35 [2] [%] | DMC (%) T1 [2] [%] | Germination rate (%) T1 [3] |
| --- | --- | --- | --- | --- |
| Maltodextrin | 20.38% | 92.49 | 94.46 | 54.55% |
| OC[C@H]1O[C@H](O[C@H]2O[C@H](CO)[C@@H](O)[C@H](O)[C@H]2O)[C@H](O)[C@@H](O)[C@@H]1O [Trehalose] | 43.18% | 91.84 | 90.35 | 68.75% |
| OC[C@@H](O)[C@@H](O)[C@H](O)[C@H](O)CO [Mannitol] | 51.40% | 94.88 | 97.01 | 69.95% |
| OC[C@H]1O[C@@](CO)(O[C@H]2O[C@H](CO)[C@@H](O)[C@H](O)[C@H]2O)[C@@H](O)[C@@H]1O [Sucrose] | 36.45% | 91.59 |  |  |
| Chitosan | not soluble |  |  | not soluble |
| OC[C@@H](O)[C@@H](O)[C@H](O)[C@@H](O)CO [Sorbitol/Glucitol] | 13.00% | 93.99 |  |  |
| OC[C@@H](O)[C@H](O)[C@H](O)[C@@H](O)CO [Ducitol/Galactitol] | not soluble |  |  | not soluble |
| O[C@H]1[C@H](O)[C@@H](O)[C@H](O)[C@@H](O)[C@H]1O [Myo-Inositol] | 59.05% | 95.59 | 96.6 | 65.03% |

— patent US20230232837A1, “NOVEL FORMULATIONS FOR INCREASING THE GERMINATION RATE OF FUNGAL SPORES” (priority 2020, published 2023)
